From ChEMBL document CHEMBL1201862, “PubChem BioAssay data set” (2004)
Activity calls are given as the source filed them.

Key:
[1] = molecular target: T1, Alkaline phosphatase, tissue-nonspecific isozyme (Homo sapiens, UniProt P05186); experiment: human TNAP enzyme inhibitors, SAR follow-up, biochemical, luminescent, dose response (AID 1056)
T1 sequence (P05186 whole entry): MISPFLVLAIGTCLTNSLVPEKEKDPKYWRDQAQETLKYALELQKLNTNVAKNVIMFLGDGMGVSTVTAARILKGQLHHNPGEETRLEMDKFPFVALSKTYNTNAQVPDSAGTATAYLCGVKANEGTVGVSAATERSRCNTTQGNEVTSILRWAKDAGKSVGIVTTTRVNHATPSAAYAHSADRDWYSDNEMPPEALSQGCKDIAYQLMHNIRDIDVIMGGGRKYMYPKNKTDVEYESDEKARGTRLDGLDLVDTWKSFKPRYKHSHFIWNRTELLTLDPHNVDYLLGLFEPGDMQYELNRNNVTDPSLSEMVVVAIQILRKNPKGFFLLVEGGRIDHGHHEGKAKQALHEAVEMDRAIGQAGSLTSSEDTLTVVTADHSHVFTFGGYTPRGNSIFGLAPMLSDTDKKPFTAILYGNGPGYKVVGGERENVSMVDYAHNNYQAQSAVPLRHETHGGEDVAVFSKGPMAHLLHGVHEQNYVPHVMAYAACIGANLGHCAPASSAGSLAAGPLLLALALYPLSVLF

[2] = molecular target: Alkaline phosphatase, placental type (Homo sapiens, UniProt P05187); experiment: PLAP enzyme inhibitors, confirmation, biochemical, luminescence (AID 1512); type: functional
Streptococcus = experiment: Group A Streptococcus viability loss, dose response, counter-screen for streptokinase expression inhibitor project, luminescence, BacTiterGlo (AID 1915); type: functional, organism-based;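 further: potency for reduction of bacterial viability or growth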
Streptokinase A = molecular target: T2, Streptokinase A (Streptococcus pyogenes serotype M1, UniProt P10520); experiment: S. pyogenes streptokinase expression inhibitors, potency, dose response, plasminogen activation absorbance, OD405 (AID 1914); type: functional, Streptococcus pyogenes M1 GAS;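 further: secreted streptokinase activity via plasminogen activation per viability signal from cell pellet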
T2 sequence (P10520 whole entry): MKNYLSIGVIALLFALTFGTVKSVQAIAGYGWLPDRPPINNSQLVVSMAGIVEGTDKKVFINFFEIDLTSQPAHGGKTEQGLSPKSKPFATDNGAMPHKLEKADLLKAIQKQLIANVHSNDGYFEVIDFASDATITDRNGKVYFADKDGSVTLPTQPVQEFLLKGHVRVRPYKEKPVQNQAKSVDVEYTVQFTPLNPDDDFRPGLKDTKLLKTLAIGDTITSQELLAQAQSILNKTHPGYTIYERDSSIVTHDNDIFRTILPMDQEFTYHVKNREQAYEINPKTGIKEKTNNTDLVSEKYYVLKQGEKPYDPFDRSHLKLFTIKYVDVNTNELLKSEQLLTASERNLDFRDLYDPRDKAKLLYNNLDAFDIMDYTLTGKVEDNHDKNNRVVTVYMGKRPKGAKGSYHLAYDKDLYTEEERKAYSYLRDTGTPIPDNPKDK

[3] = system: Streptococcus sp. 'group A'; experiment: growth inhibition of control SK(-) GAS strain, dose response, counter-screen for streptokinase expression inhibitor project, luminescence, kanamycin, BacTiterGlo, confirmation (AID 1900); type: functional, organism-based
CAAX prenyl protease 2 = molecular target: T3, CAAX prenyl protease 2 (Saccharomyces cerevisiae S288c, UniProt Q03530); type: biochemical
T3 sequence (Q03530 whole entry): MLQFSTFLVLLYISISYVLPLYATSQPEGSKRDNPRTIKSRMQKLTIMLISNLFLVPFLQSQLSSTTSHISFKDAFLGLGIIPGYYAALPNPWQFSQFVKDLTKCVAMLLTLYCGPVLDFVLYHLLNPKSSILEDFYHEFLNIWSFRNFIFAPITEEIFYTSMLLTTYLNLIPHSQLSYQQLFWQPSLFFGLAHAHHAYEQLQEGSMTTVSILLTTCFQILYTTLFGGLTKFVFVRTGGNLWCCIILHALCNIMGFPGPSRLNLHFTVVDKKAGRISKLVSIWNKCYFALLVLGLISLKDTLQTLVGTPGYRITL

Hexokinase = molecular target: T4, Hexokinase (Trypanosoma brucei, UniProt Q38C41); experiment: Confirmation assay for inhibitors of Trypanosoma brucei hexokinase 1-Analogue-first series. [Related pubchem assays (depositor defined):AID1430, AID1632, AID2516, AID2560, AID2579, AID2600, AID449725, AID492951]; type: functional
T4 sequence (Q38C41 whole entry): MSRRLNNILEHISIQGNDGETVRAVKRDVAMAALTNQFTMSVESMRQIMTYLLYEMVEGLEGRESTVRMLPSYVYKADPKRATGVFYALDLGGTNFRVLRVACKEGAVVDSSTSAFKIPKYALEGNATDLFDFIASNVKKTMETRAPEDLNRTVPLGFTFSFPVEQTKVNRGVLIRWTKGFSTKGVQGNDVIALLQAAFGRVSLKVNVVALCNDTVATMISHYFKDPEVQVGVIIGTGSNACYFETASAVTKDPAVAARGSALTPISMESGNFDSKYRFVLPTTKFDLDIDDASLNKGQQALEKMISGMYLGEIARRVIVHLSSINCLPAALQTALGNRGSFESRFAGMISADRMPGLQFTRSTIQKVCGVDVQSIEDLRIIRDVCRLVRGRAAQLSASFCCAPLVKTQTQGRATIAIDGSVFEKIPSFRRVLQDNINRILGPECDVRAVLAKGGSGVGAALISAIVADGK

Cytochrome P450 2D6 = Cytochrome P450 2D6 (Homo sapiens, UniProt P10635);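 further: CYP2D6 member of a cytochrome P450 panel assay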
Cytochrome P450 2C19 = Cytochrome P450 2C19 (Homo sapiens, UniProt P33261); experiment: Cytochrome panel assay with activity outcomes. Panel member name: p450-cyp2c19 Compounds with AC50 equal or less than 10 uM are considered active; type: functional
[4] = cytotoxicity toward DRD oncogenic fibroblasts, dose response, cell-based, non-viral oncogenic, luminescence (AID 1934); type: functional; settings: Homo sapiens
BJ [5] = experiment: cytotoxicity toward BJ-TERT fibroblasts, dose response, cell-based, RAS-independent, luminescence (AID 1933); type: functional; settings: Homo sapiens
BJ [6] = experiment: cells; type: functional, cell-based; settings: Homo sapiens
SUMO-activating enzyme = SUMO-activating enzyme (Homo sapiens, UniProt Q9UBT2); experiment: SUMOylation inhibitor hit validation, confirmation, SUMOylation inhibitor project, biochemical, AlphaScreen (AID 2018); type: functional
BJ [7] = experiment: cytotoxicity toward BJ-TERT-LT-ST fibroblasts, dose response, cell-based, RAS-independent, luminescence (AID 1935); type: functional; settings: Homo sapiens;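 further: BJ fibroblasts immortalized with TERT plus LT and ST oncogenes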
Cytochrome P450 1A2 = molecular target: T5, Cytochrome P450 1A2 (Homo sapiens, UniProt P05177);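 further: PubChem cytochrome P450 panel assay, CYP1A2 panel member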
T5 sequence (P05177 whole entry): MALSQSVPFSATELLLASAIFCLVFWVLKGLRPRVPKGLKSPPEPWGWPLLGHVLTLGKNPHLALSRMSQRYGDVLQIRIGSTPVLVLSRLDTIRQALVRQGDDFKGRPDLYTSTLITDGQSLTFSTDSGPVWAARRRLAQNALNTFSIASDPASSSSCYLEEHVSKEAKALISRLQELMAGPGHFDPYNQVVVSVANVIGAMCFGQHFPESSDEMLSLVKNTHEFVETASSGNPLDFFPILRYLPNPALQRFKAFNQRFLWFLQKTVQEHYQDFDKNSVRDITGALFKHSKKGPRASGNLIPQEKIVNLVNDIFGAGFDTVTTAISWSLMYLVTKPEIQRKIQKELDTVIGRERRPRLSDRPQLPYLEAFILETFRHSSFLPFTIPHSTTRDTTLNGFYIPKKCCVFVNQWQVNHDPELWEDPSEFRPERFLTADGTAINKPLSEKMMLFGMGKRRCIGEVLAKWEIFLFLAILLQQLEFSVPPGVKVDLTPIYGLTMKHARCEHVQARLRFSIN

[8] = molecular target: DNA dC->dU-editing enzyme APOBEC-3A (Homo sapiens, UniProt P31941); experiment: Dose Response confirmation of small molecule APOBEC3A DNA Deaminase Inhibitors via a fluorescence-based single-stranded DNA deaminase assay. [Related pubchem assays (depositor defined):AID493011, AID493024]; type: functional
[9] = molecular target: DNA dC->dU-editing enzyme APOBEC-3G (Homo sapiens, UniProt Q9HC16); type: functional;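 further: Dose-response counterscreen measuring inhibition of APOBEC3G DNA deaminase activity, run while confirming APOBEC3A inhibitors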
T-cell = experiment: inhibitors of CD8+ T cell–vesicle binding, dose response, mouse 2C CD8+ T cells, flow cytometry (AID 485284); type: functional
[10] = molecular target: T6, Ubiquitin-conjugating enzyme E2 N (Homo sapiens, UniProt P61088); type: functional
T6 sequence (P61088 whole entry): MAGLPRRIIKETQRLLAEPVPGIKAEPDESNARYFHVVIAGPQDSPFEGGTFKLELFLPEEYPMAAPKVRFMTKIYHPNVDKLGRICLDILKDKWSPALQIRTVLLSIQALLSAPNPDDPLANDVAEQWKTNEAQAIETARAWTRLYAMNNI

Bcl-2-related protein A1 = molecular target: T7, Bcl-2-related protein A1 (Mus musculus, UniProt Q07440); type: functional;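 further: confirmatory dose–response counterscreen on Bfl-1, used to check hits from a UBC13 polyubiquitin inhibitor campaign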
T7 sequence (Q07440 whole entry): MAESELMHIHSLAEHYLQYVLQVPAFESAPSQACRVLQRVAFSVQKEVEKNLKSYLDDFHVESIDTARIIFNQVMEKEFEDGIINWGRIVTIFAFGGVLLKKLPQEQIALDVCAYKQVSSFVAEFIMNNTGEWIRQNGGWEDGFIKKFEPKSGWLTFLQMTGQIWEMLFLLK

[11] = molecular target: T6, Ubiquitin-conjugating enzyme E2 N; type: functional; remark: listed apart in the source
Coagulation factor XII = molecular target: T8, Coagulation factor XII (Homo sapiens, UniProt P00748); type: functional;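 further: activated factor XIIa alpha cleaving a fluorogenic AMC peptide substrate; inhibitor potency from loss of enzyme activity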
T8 sequence (P00748 whole entry): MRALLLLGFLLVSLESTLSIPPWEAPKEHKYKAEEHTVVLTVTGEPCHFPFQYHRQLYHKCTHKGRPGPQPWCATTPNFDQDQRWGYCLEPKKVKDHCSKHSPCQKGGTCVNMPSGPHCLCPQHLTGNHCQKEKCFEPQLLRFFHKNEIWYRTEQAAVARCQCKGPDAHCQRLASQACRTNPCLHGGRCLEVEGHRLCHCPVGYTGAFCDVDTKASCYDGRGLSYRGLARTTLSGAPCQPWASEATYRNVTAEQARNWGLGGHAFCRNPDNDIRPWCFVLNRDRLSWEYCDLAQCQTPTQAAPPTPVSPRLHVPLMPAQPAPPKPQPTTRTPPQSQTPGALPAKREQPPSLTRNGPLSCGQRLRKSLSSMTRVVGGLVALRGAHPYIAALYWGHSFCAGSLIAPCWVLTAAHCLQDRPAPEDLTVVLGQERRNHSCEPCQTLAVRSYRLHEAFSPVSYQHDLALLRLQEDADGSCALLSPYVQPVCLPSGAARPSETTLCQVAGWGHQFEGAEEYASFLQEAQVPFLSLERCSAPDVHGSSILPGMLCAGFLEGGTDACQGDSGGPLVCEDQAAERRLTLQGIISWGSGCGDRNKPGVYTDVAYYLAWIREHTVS

Caspase-6 = molecular target: T9, Caspase-6 (Homo sapiens, UniProt P55212); experiment: human caspase-6 inhibitors, dose response, biochemical, VEID-R110 fluorescence, cherry-pick (AID 720632)
T9 sequence (P55212 whole entry): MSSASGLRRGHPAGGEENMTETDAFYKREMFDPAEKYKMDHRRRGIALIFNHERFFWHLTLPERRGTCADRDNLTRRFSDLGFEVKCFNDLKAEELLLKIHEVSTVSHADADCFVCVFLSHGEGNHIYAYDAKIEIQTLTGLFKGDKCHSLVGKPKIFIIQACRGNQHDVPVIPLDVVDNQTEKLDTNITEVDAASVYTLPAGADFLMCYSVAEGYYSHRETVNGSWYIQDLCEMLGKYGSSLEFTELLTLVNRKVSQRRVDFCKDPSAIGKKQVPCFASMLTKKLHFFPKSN

Sequence of DNA dC->dU-editing enzyme APOBEC-3G (Q9HC16 whole entry): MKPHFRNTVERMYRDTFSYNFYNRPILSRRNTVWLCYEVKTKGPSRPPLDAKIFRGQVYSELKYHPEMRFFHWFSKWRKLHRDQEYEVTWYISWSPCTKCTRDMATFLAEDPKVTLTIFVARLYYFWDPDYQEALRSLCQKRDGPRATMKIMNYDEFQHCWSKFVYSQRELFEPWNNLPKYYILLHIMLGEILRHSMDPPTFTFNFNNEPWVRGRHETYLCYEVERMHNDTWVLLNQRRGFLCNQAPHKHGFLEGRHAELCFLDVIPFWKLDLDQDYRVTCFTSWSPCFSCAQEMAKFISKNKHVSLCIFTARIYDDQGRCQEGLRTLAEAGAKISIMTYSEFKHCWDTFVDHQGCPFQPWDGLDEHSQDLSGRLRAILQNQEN
Sequence of Alkaline phosphatase, placental type (P05187 whole entry): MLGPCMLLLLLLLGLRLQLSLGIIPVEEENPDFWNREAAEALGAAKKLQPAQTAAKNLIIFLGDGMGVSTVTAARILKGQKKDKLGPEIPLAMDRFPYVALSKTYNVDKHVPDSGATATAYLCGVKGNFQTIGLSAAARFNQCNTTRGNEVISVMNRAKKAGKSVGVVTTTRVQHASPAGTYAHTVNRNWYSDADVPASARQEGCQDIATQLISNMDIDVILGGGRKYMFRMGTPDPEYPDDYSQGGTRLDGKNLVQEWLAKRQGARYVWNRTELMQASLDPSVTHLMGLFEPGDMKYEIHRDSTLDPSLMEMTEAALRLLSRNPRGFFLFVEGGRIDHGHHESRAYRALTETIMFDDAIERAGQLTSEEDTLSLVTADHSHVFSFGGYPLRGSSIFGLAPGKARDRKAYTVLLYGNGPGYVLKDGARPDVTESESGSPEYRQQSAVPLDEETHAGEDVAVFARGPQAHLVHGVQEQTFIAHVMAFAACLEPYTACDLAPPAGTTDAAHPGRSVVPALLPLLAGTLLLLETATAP
Sequence of DNA dC->dU-editing enzyme APOBEC-3A (P31941 whole entry): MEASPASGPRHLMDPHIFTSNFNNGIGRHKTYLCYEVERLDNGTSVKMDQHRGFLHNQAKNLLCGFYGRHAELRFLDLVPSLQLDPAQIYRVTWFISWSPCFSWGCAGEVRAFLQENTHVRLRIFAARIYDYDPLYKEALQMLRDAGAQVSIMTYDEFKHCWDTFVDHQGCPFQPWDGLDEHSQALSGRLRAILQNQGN
Sequence of Cytochrome P450 2D6 (P10635 whole entry): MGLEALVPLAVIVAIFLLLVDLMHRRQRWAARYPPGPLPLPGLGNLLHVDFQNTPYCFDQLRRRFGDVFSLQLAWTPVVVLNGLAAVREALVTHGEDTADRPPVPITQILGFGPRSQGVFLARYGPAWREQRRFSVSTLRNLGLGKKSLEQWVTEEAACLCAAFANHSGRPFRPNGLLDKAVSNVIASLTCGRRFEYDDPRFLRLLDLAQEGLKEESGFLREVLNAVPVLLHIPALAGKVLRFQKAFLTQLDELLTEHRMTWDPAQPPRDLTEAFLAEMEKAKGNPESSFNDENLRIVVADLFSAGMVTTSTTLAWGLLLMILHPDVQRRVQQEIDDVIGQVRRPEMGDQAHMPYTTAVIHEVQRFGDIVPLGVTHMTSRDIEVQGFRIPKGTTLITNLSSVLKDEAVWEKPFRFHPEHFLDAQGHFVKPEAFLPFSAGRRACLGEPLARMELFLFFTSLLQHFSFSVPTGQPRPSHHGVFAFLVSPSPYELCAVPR
Sequence of SUMO-activating enzyme (Q9UBE0 whole entry): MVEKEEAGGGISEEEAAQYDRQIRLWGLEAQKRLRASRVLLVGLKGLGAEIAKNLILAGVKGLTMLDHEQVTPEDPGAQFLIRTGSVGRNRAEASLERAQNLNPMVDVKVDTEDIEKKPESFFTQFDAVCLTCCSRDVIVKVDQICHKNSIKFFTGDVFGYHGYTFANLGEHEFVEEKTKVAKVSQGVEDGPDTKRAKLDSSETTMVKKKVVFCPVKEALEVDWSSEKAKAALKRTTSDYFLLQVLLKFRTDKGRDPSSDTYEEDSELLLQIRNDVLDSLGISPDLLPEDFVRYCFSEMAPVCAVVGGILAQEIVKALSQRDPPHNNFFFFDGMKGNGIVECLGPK
Sequence of SUMO-activating enzyme (Q9UBT2 whole entry): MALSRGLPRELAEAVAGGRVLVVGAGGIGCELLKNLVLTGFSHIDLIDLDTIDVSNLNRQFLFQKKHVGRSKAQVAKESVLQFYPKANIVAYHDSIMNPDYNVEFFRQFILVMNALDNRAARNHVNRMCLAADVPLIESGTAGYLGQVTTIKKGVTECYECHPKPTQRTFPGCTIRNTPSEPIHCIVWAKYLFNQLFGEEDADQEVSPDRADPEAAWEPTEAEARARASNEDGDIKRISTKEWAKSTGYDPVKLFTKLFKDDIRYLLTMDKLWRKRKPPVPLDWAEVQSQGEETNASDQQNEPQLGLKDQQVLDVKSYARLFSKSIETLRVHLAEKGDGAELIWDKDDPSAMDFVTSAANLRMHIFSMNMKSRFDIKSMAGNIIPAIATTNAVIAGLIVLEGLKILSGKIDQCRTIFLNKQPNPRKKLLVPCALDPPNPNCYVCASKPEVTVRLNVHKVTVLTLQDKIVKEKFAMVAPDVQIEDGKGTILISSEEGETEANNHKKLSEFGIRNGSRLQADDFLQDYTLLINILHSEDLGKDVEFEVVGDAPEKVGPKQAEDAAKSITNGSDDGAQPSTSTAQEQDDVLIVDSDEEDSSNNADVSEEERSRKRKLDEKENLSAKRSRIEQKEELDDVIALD
Sequence of Cytochrome P450 2C19 (P33261 whole entry): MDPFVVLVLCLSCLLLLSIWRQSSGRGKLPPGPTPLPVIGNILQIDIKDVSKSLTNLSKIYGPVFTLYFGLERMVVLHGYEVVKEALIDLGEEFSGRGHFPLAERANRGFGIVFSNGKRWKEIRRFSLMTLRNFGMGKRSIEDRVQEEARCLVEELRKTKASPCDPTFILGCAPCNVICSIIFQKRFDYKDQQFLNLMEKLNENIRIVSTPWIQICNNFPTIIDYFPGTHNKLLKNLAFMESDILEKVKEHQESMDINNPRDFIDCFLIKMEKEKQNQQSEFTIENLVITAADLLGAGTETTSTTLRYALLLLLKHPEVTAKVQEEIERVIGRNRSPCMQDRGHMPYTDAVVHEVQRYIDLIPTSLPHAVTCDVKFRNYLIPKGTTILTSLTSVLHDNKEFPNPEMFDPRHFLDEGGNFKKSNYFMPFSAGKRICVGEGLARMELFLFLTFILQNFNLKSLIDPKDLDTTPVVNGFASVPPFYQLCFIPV

## CCCCN1C(=O)/C(=N\Nc2ccccc2C(F)(F)F)c2ccccc21
[1]
  IC50: 73.8 µM (active)
[2]
  IC50: 49.7 µM (active)

## Cc1cc(Cl)c2oc(C(=O)N3CCN(C(=O)c4ccco4)CC3)c(C)c2c1
Streptococcus
  EC50: 24.7 µM (active)
Streptokinase A
  EC50: > 150 µM (not active)
[3]
  EC50: 3.4 µM (active)
CAAX prenyl protease 2
  AC50: 21.7 µM (active)

## COc1ccc(C(=O)N(C)c2cc(Cl)ccc2C(=O)O)cc1
Hexokinase
  IC50: > 25 µM (inactive)

## Cn1c(=O)c2nc(CCCCc3nc4ccccc4[nH]3)[nH]c2n(C)c1=O
Cytochrome P450 2D6
  AC50: inconclusive
Cytochrome P450 2C19
  AC50: inconclusive

## COc1ccc(C(=O)Nc2cnccc2C(=O)O)cc1
Hexokinase
  IC50: > 25 µM (inactive)

## O=C(N/N=C/c1ccc([N+](=O)[O-])o1)c1cc(-c2ccc(-c3ccccc3)cc2)nc2ccccc12
[4]
  EC50: 8.03 µM (inconclusive)
BJ [5]
  EC50: 9.46 µM (inconclusive)
BJ [6]
  EC50: 4.52 µM (inconclusive)
SUMO-activating enzyme
  IC50: 15.4 µM (active)
BJ [7]
  EC50: 11.2 µM (active)

## CCCCN=C(S)NNC(=O)c1nn(C)c(C)c1Cl
[2]
  IC50: > 100 µM (inactive)

## O=C1Nc2ccccc2/C1=C\NCCc1ccc(O)c(O)c1
[1]
  IC50: 2.54 µM (active)
[2]
  IC50: 0.374 µM (active)

## CCN=C=NCCCN(C)C
Cytochrome P450 2D6
  AC50: inconclusive
Cytochrome P450 1A2
  AC50: 5.01 µM (inconclusive)

## Cc1nc2nc(C)n(-c3ccccc3)c2s1
[8]
  IC50: 17.7 µM (active)
[9]
  IC50: 6.72 µM (active)

## COCCCN1CCc2nc(S)nc(O)c2C1
T-cell
  EC50: 0.594 µM (active)

## COc1ccc(N(C(=O)c2snc(C(N)=O)c2N)C(C(=O)NC2CCCC2)c2ccco2)cc1OC (configuration not stated)
[10]
  IC50: 7.43 µM (active)
Bcl-2-related protein A1
  IC50: > 20 µM (inactive)
[11]
  IC50: 12 µM (active)

## CCOc1ncccc1C(=O)OCC(=O)Nc1ccc(C(N)=O)cc1
Coagulation factor XII
  IC50: > 50 µM (inactive)

## COc1ccc(CCNC(=O)CCn2c(=O)c3ccccc3n(CC(=O)NCC3CCCO3)c2=O)cc1OC (configuration not stated)
Coagulation factor XII
  IC50: > 50 µM (inactive)

## COc1ccc(C(=O)Nn2c(C)nc3ccccc3c2=O)cc1
[10]
  IC50: 6.37 µM (active)
Bcl-2-related protein A1
  IC50: > 20 µM (inactive)
[11]
  IC50: 10.6 µM (active)

## Cc1ccc(N2CC(C(=O)NC3=NCCS3)CC2=O)cc1 (configuration not stated)
T-cell
  EC50: 22.1 µM (active)

## O=C(O)c1ccc2c3c(cccc13)C(=O)N(c1ccccc1)C2=O
[8]
  IC50: 14 µM (active)
Caspase-6
  AC50: 11.9 µM (active)
[9]
  IC50: 37.5 µM (active)

## CCN1C(NCCCOC(C)C)=N[C@@H](c2ccccc2)[C@H](C(=O)OC)[C@H]1C
[8]
  IC50: 3.99 µM (active)
[9]
  IC50: 7.19 µM (active)
